Source: ChEMBL document CHEMBL1201862, “PubChem BioAssay data set” (2004)
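Tested at 5 concentrations; 48 h exposure; 96-well plates; endpoints linearly interpolated, else capped at highest concentration. At the GI50, growth is halved.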 The source made the active and inactive calls. No stated cut-off is given here; in the data, active = GI50 up to about 1.1 µM and inactive = higher.

What was measured:
Test in all cases: NCI tumour cell line growth inhibition, 48 h
786-0 = system: 786-0
A498 = system: A498
A549 = system: A549
ACHN = system: ACHN
BT-549 = system: BT-549
CAKI-1 = system: CAKI-1
CCRF-CEM = system: CCRF-CEM
DU-145 = system: DU-145
EKVX = system: EKVX
HCC 2998 = system: HCC 2998
HCT-116 = system: HCT-116
HCT-15 = system: HCT-15
HOP-62 = system: HOP-62
HOP-92 = system: HOP-92
HT-29 = system: HT-29
Hs-578T = system: Hs-578T
IGROV-1 = system: IGROV-1
K562 = system: K562
KM12 = system: KM12
LOX IMVI = system: LOX IMVI
M14 = system: M14
MCF7 = system: MCF7
MDA-MB-231 = system: MDA-MB-231
MDA-MB-435 = system: MDA-MB-435
MDA-N = system: MDA-N
MOLT-4 = system: MOLT-4
Malme-3M = system: Malme-3M
NCI-H226 = system: NCI-H226
NCI-H23 = system: NCI-H23
NCI-H460 = system: NCI-H460
NCI-H522 = system: NCI-H522
NCI/ADR-RES = system: NCI/ADR-RES
OVCAR-3 = system: OVCAR-3
OVCAR-4 = system: OVCAR-4
OVCAR-5 = system: OVCAR-5
OVCAR-8 = system: OVCAR-8
PC-3 = system: PC-3
RXF 393 = system: RXF 393
SF-268 = system: SF-268
SF-295 = system: SF-295
SK-MEL-28 = system: SK-MEL-28
SK-MEL-2 = system: SK-MEL-2
SK-MEL-5 = system: SK-MEL-5
SN12C = system: SN12C
SNB-19 = system: SNB-19
SNB-75 = system: SNB-75
SR = system: SR
SW-620 = system: SW-620
T47D = system: T47D
TK-10 = system: TK-10
U-251 = system: U-251
UACC-257 = system: UACC-257
UACC-62 = system: UACC-62
UO-31 = system: UO-31
COLO 205 = system: COLO 205
HL-60 = system: HL-60
RPMI-8226 = system: RPMI-8226
SF-539 = system: SF-539
SK-OV-3 = system: SK-OV-3

Measured: GI50

N=C(N)c1ccc(/C=C/c2ccc(C(=N)N)cc2)cc1
inactive: 786-0 62.1 µM | A498 14.9 µM | A549 39.7 µM | ACHN > 100 µM | BT-549 > 100 µM | CAKI-1 94.6 µM | CCRF-CEM > 100 µM | DU-145 > 100 µM | EKVX 46.3 µM | HCC 2998 90.8 µM | HCT-116 > 100 µM | HOP-62 41.2 µM | HOP-92 > 100 µM | HT-29 93.1 µM | Hs-578T 48 µM | IGROV-1 70.8 µM | K562 49.8 µM | KM12 > 100 µM | LOX IMVI > 100 µM | M14 > 100 µM | MCF7 96.6 µM | MDA-MB-231 > 100 µM | MDA-MB-435 > 100 µM | MDA-N > 100 µM | MOLT-4 > 100 µM | Malme-3M 53 µM | NCI-H226 > 100 µM | NCI-H23 78.5 µM | NCI-H460 34.5 µM | NCI-H522 63.2 µM | NCI/ADR-RES 77.3 µM | OVCAR-3 > 100 µM | OVCAR-4 > 100 µM | OVCAR-5 81.8 µM | OVCAR-8 85.7 µM | PC-3 64.9 µM | RXF 393 > 100 µM | SF-268 > 100 µM | SF-295 34.4 µM | SK-MEL-28 45.8 µM | SK-MEL-2 27.1 µM | SK-MEL-5 29.1 µM | SN12C 22.7 µM | SNB-19 > 100 µM | SNB-75 32.1 µM | SR > 100 µM | SW-620 96.8 µM | T47D > 100 µM | TK-10 24.5 µM | U-251 33.5 µM | UACC-257 65.9 µM | UACC-62 97.9 µM | UO-31 > 100 µM
> 100 µM: HCT-15

COc1ncc(C=C(C#N)C#N)c(OC)n1
29.9 µM: HCT-15
inactive: 786-0 19.3 µM | A498 > 100 µM | A549 > 100 µM | ACHN 48.5 µM | BT-549 33.7 µM | CAKI-1 36.1 µM | CCRF-CEM 7.48 µM | COLO 205 36 µM | DU-145 52.5 µM | EKVX 79.8 µM | HCT-116 26.1 µM | HL-60 16.7 µM | HOP-62 83.6 µM | HOP-92 > 100 µM | HT-29 40 µM | Hs-578T 60.7 µM | IGROV-1 59.3 µM | K562 38.6 µM | KM12 50 µM | LOX IMVI 30.2 µM | M14 18.7 µM | MCF7 36.7 µM | MDA-MB-231 41.5 µM | MDA-MB-435 26 µM | MDA-N 26.9 µM | MOLT-4 33.3 µM | Malme-3M 35.2 µM | NCI-H226 > 100 µM | NCI-H23 31.3 µM | NCI-H460 41 µM | NCI-H522 16.7 µM | NCI/ADR-RES 22.6 µM | OVCAR-3 57.9 µM | OVCAR-4 48.9 µM | OVCAR-5 86.7 µM | OVCAR-8 24.2 µM | PC-3 39.2 µM | RPMI-8226 24 µM | RXF 393 > 100 µM | SF-268 61.8 µM | SF-295 85.5 µM | SF-539 30.8 µM | SK-MEL-28 44.8 µM | SK-MEL-2 32.3 µM | SK-MEL-5 29.3 µM | SK-OV-3 > 100 µM | SN12C 26.8 µM | SNB-19 52.6 µM | SNB-75 > 100 µM | SR 15.3 µM | SW-620 26.2 µM | T47D > 100 µM | TK-10 37.3 µM | U-251 43.6 µM | UACC-257 22.1 µM | UACC-62 33.8 µM | UO-31 21.1 µM
